According to patent US20210186973A1, “COMBINATION OF RIBOCICLIB AND DABRAFENIB FOR TREATING OR PREVENTING CANCER” (NOVARTIS AG, priority 2015, published 2021):
“Also recorded” adds a separate entry of the source.

How the values were obtained:
Format in all cases: cell-based
RKO = experiment: Cell proliferation (cell count by microscopy) in RKO; settings: Homo sapiens; single agent; RKO (BRAF, PIK3CA); 72 h; 50% of cell counts relative to DMSO
Description: (§1) The compounds were dissolved in 100% DMSO (Sigma, Catalog number D2650) at concentrations of 20 mM and stored at −20° C. until use. Compounds were arrayed in drug master plates (Greiner, Catalog number 788876) and serially diluted 3-fold (7 steps) at 2000× concentration.
(§2) Colorectal cancer cell lines used for this study were obtained, cultured and processed from commercial vendors ATCC, CellBank Australia, and HSRRB (Table 1). All cell line media were supplemented with 10% FBS (HyClone, Catalog number SH30071.03). […]
(§3) Cell lines were cultured in 37° C. and 5% CO2 incubator and expanded in T-75 flasks. In all cases cells were thawed from frozen stocks, expanded through ≥1 passage using 1:3 dilutions, counted and assessed for viability using a ViCell counter (Beckman-Coulter) prior to plating. […] All cell lines were determined to be free of mycoplasma contamination as determined by a PCR detection methodology performed at Idexx Radil (Columbia, Mo., USA) and correctly identified by detection of a panel of SNPs.
(§4) Images were analyzed after adapting previously described methods (Horn, Sandmann et al. 2011) and using the Bioconductor package EBImage in R (Pau, Fuchs et al. 2010). Objects in both channels, DAPI (for Hoechst/DNA) and FITC (for Caspase 3/7), were segmented separately by adaptive thresholding and counted. […]

COLO-205 = experiment: Cell proliferation (cell count by microscopy) in COLO-205; settings: Homo sapiens; single agent; COLO-205 (BRAF); 72 h; 50% of cell counts relative to DMSO
Description: as §1, §2, §3, §4

HT-29 = experiment: Cell proliferation (cell count by microscopy) in HT-29; settings: Homo sapiens; single agent; HT-29 (BRAF, PIK3CA); 72 h; 50% of cell counts relative to DMSO
Description: as §1, §2, §3, §4

[1] = tested on: 6 B-Raf mutant colorectal cancer cell lines; experiment: Cell proliferation over the panel of 6 cell lines; settings: single agent
Description: as §1, §2, §3, §4

LS411N = experiment: Cell proliferation (cell count by microscopy) in LS411N; settings: Homo sapiens, LS-411N; single agent; LS411N (BRAF); 72 h; 50% of cell counts relative to DMSO
Description: as §1, §2, §3, §4

LIM2551 = experiment: Cell proliferation (cell count by microscopy) in LIM2551; settings: single agent; LIM2551 (BRAF, PIK3CA); 72 h; 50% of cell counts relative to DMSO
Description: as §1, §2, §3, §4

OUMS-23 = experiment: Cell proliferation (cell count by microscopy) in OUMS-23; settings: single agent; OUMS-23 (BRAF); 72 h; 50% of cell counts relative to DMSO
Description: as §1, §2, §3, §4

| IC50 (COLO-205) [nM] | IC50 (HT-29) [nM] | IC50s (in words) ([1]; in the PIK3CA mutant cells) | Structure (SMILES) | IC50 (RKO) [nM] | IC50s (in words) ([1]; all but one cell line (ODMS-23)) | IC50 (LS411N) [nM] | IC50 (LIM2551) [nM] | IC50 (OUMS-23) [nM] |
| --- | --- | --- | --- | --- | --- | --- | --- | --- |
| 7 | 16 | – | CC(C)(C)c1nc(-c2cccc(NS(=O)(=O)c3c(F)cccc3F)c2F)c(-c2ccnc(N)n2)s1 [Dabrafenib, N-{3-[5-(2-Amino-4-pyrimidinyl)-2-(1,1-dimethylethyl)-1,3-thiazol-4-yl]-2-fluorophenyl}-2,6-difluorobenzenesulfonamide] | 240 | nanomolar to low micromolar; also recorded: nanomolar to sub-micromolar | 36 | 18 | > 1000 |
| – | – | micromolar | Cc1nc(NC(=O)N2CCC[C@H]2C(N)=O)sc1-c1ccnc(C(C)(C)C(F)(F)F)c1 [BYL719, (S)-Pyrrolidine-1,2-dicarboxylic acid 2-amide 1-({4-methyl-5-[2-(2,2,2-trifluoro-1,1-dimethyl-ethyl)-pyridin-4-yl]-thiazol-2-yl}-amide)] | – | – | – | – | – |
